Experimental data taken from PubChem BioAssay (NCI).
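GI50 is the concentration that inhibits growth by half. At the TGI there is no net growth.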

How the values were obtained:
Assay in all cases: NCI-60 cell line screen, 384-well format
OVCAR-3 ovarian = tested on: OVCAR-3 ovarian
SF-295 CNS = tested on: SF-295 CNS
OVCAR-5 ovarian = tested on: OVCAR-5 ovarian
HCT-15 colon = tested on: HCT-15 colon
HOP-62 NSCLC = tested on: HOP-62 NSCLC
786-0 renal = tested on: 786-0 renal
ACHN renal = tested on: ACHN renal
PC-3 prostate = tested on: PC-3 prostate
NCI-H226 lung = tested on: NCI-H226 lung
DU-145 prostate = tested on: DU-145 prostate
SW-620 colon = tested on: SW-620 colon
TK-10 renal = tested on: TK-10 renal
A498 renal = tested on: A498 renal
NCI-H522 lung = tested on: NCI-H522 lung
CAKI-1 renal = tested on: CAKI-1 renal
IGROV1 ovarian = tested on: IGROV1 ovarian
A549 NSCLC = tested on: A549 NSCLC
NCI-H23 lung = tested on: NCI-H23 lung
COLO 205 colon = tested on: COLO 205 colon
MDA-MB-231 breast = tested on: MDA-MB-231 breast
MDA-MB-468 breast = tested on: MDA-MB-468 breast
SK-MEL-2 melanoma = tested on: SK-MEL-2 melanoma
BT-549 breast = tested on: BT-549 breast
OVCAR-4 ovarian = tested on: OVCAR-4 ovarian
MOLT-4 leukemia = tested on: MOLT-4 leukemia
T-47D breast = tested on: T-47D breast
NCI-H460 NSCLC = tested on: NCI-H460 NSCLC
UACC-62 melanoma = tested on: UACC-62 melanoma
SF-539 CNS = tested on: SF-539 CNS
KM12 colon = tested on: KM12 colon
SN12C renal = tested on: SN12C renal
M14 melanoma = tested on: M14 melanoma
EKVX NSCLC = tested on: EKVX NSCLC
SK-MEL-28 melanoma = tested on: SK-MEL-28 melanoma
SF-268 CNS = tested on: SF-268 CNS
OVCAR-8 ovarian = tested on: OVCAR-8 ovarian
MCF7 breast = tested on: MCF7 breast
HOP-92 NSCLC = tested on: HOP-92 NSCLC
RXF 393 renal = tested on: RXF 393 renal
SNB-19 CNS = tested on: SNB-19 CNS
MDA-MB-435 melanoma = tested on: MDA-MB-435 melanoma
U251 glioblastoma = tested on: U251 glioblastoma
SK-OV-3 ovarian = tested on: SK-OV-3 ovarian
K-562 leukemia = tested on: K-562 leukemia
HT29 colon = tested on: HT29 colon
HS 578T breast = tested on: HS 578T breast
SNB-75 CNS = tested on: SNB-75 CNS
NCI-H322M lung = tested on: NCI-H322M lung
SR leukemia = tested on: SR leukemia
UACC-257 melanoma = tested on: UACC-257 melanoma
UO-31 renal = tested on: UO-31 renal
HL-60(TB) leukemia = tested on: HL-60(TB) leukemia
SK-MEL-5 melanoma = tested on: SK-MEL-5 melanoma
HCT-116 colon = tested on: HCT-116 colon
MALME-3M melanoma = tested on: MALME-3M melanoma

## N#Cc1ncc(N2C(=O)C3(CCC3)N(c3ccc(OC4CCNCC4)nc3)C2=S)cc1C(F)(F)F
OVCAR-3 ovarian
  GI50: 14 µM
  TGI: 27.1 µM
SF-295 CNS
  GI50: 18.6 µM
  TGI: 32.6 µM
OVCAR-5 ovarian
  GI50: 13.8 µM
  TGI: 27 µM
HCT-15 colon
  GI50: 5.19 µM
  TGI: 16.6 µM
HOP-62 NSCLC
  GI50: 20.9 µM
  TGI: 35.3 µM
786-0 renal
  GI50: 12 µM
  TGI: 24.4 µM
ACHN renal
  GI50: 15.3 µM
  TGI: 28.7 µM
PC-3 prostate
  GI50: 14.4 µM
  TGI: 27.5 µM
NCI-H226 lung
  GI50: 8.62 µM
  TGI: 20.7 µM
DU-145 prostate
  GI50: 14.5 µM
  TGI: 27.9 µM
SW-620 colon
  GI50: 14.5 µM
  TGI: 27.8 µM
TK-10 renal
  GI50: 7.64 µM
  TGI: 20.1 µM
A498 renal
  GI50: 10.8 µM
  TGI: 22.7 µM
NCI-H522 lung
  GI50: 17.5 µM
  TGI: 31.3 µM
CAKI-1 renal
  GI50: 5.96 µM
  TGI: 18.3 µM
IGROV1 ovarian
  GI50: 14.4 µM
  TGI: 27.7 µM
A549 NSCLC
  GI50: 16.7 µM
  TGI: 30.5 µM
NCI-H23 lung
  GI50: 11 µM
  TGI: 23 µM
COLO 205 colon
  GI50: 15.1 µM
  TGI: 28.4 µM
MDA-MB-231 breast
  GI50: 16.1 µM
  TGI: 29.6 µM
MDA-MB-468 breast
  GI50: 10.6 µM
  TGI: 22.4 µM
SK-MEL-2 melanoma
  GI50: 5.98 µM
  TGI: 17.9 µM
BT-549 breast
  GI50: 11.1 µM
  TGI: 23.1 µM
OVCAR-4 ovarian
  GI50: 13.6 µM
  TGI: 26.5 µM
MOLT-4 leukemia
  GI50: 10.1 µM
  TGI: 21.7 µM
T-47D breast
  GI50: 8.96 µM
  TGI: 21.1 µM
NCI-H460 NSCLC
  GI50: 11.2 µM
  TGI: 23.4 µM
UACC-62 melanoma
  GI50: 2.03 µM
  TGI: 3.93 µM
SF-539 CNS
  GI50: 12.4 µM
  TGI: 24.9 µM
KM12 colon
  GI50: 17.1 µM
  TGI: 30.9 µM
SN12C renal
  GI50: 15.5 µM
  TGI: 28.9 µM
M14 melanoma
  GI50: 3 µM
  TGI: 8.44 µM
EKVX NSCLC
  GI50: 10.2 µM
  TGI: 22 µM
SK-MEL-28 melanoma
  GI50: 2.32 µM
  TGI: 5.21 µM
SF-268 CNS
  GI50: 13.4 µM
  TGI: 26.3 µM
OVCAR-8 ovarian
  GI50: 14.5 µM
  TGI: 27.7 µM
MCF7 breast
  GI50: 4.76 µM
  TGI: 16.6 µM
HOP-92 NSCLC
  GI50: 12.7 µM
  TGI: 25.4 µM
RXF 393 renal
  GI50: 2.63 µM
  TGI: 7.32 µM
SNB-19 CNS
  GI50: 19.1 µM
  TGI: 35.3 µM
MDA-MB-435 melanoma
  GI50: 13.4 µM
  TGI: 26.3 µM
U251 glioblastoma
  GI50: 17.2 µM
  TGI: 31 µM
SK-OV-3 ovarian
  GI50: 18.1 µM
  TGI: 32.2 µM
K-562 leukemia
  GI50: 4.27 µM
  TGI: 16.1 µM
HT29 colon
  GI50: 2.88 µM
  TGI: 8.52 µM
HS 578T breast
  GI50: 11.5 µM
  TGI: 23.6 µM
SNB-75 CNS
  GI50: 14.5 µM
  TGI: 27.7 µM
NCI-H322M lung
  GI50: 17.9 µM
  TGI: 32.5 µM
SR leukemia
  GI50: 1.9 µM
  TGI: 3.91 µM
UACC-257 melanoma
  GI50: 1.99 µM
  TGI: 3.79 µM
UO-31 renal
  GI50: 14.7 µM
  TGI: 27.9 µM
HL-60(TB) leukemia
  GI50: 3.75 µM
  TGI: 15.8 µM
SK-MEL-5 melanoma
  GI50: 11.8 µM
  TGI: 24.1 µM
HCT-116 colon
  GI50: 8.22 µM
  TGI: 20.7 µM
MALME-3M melanoma
  GI50: 2.68 µM
  TGI: 6.23 µM
